In test [1] the test system is TGF-β-stimulated SMAD3 phosphorylation in BEAS-2B cells. Nature of the test: Cellular ALK5 potency assay, inhibition of TGF-β stimulated pSMAD3 formation in BEAS-2B cells. The note with it: Homo sapiens, pSMAD3, TGF-β 10 ng/mL, read-out: BEAS2B pIC50 (converted). In kind it is cell-based. The protocol: The potency of compounds of the present disclosure for inhibition of TGF-β-stimulated SMAD3 phosphorylation was measured in BEAS-2B cells, a human lung epithelial cell line. TGF-β signals through activin receptor-like kinase 5 (ALK5) immediately prior to SMAD3 phosphorylation.
BEAS-2B cells were grown using 50% DMEM (Life Technologies) and 50% F-12 (Life Technologies) media, supplemented with 10% Fetal Bovine Serum (ATCC), 25 mM HEPES (Life Technologies), and 1×Pen-Strep (Life Technologies). Cells were cultured in a humidified incubator set at 37° C., 5% CO2, and trypsonized using 0.25% Trypsin with 0.5% polyvinylpyrrolidone (PVP).
For the assay, BEAS-2B cells were seeded at 7,500 cells/well (25 μL/well) in a 384-well plate and cultured overnight. Before dosing, growth media was aspirated and the wells were rinsed with HBSS Buffer (HBSS with Calcium and Magnesium, Life Technologies) supplemented with 25 mM HEPES (Life Technologies) and 1% Bovine Serum Albumin (Roche). Compounds were serially diluted in DMSO, then further diluted with supplemented HBSS Buffer (50 μL/well) to create a compound plate 3× of the final assay concentration, at 0.3% DMSO. The diluted compounds were then added to the cells (8 μL/well) and incubated at 37° C., 5% CO2 for 1 hour. After the compound incubation, TGF-β (R&D Systems) reconstituted in supplemented HBSS Buffer was added to the cells ([…], final concentration 10 ng/mL) and incubated for a further 30 minutes, after which the cells were immediately lysed with AlphaLISA lysis buffer (PerkinElmer). AlphaLISA Acceptor and Detector beads (PerkinElmer) were added 2 hours apart, then incubated overnight to be read the next day. The potency of the compound was determined through analysis of dose-dependent quantified changes in pSMAD3 signal from baseline (non-compound treated TGF-β stimulated cells). Data are expressed as pIC50 (negative decadic logarithm IC50) values.

Test [2] deals with T1, recombinant human ALK5 (TGF-βR1) protein (Homo sapiens, UniProt P36897).
T1 construct: purchased Life Technologies PR9075A
T1 sequence (P36897 34-503): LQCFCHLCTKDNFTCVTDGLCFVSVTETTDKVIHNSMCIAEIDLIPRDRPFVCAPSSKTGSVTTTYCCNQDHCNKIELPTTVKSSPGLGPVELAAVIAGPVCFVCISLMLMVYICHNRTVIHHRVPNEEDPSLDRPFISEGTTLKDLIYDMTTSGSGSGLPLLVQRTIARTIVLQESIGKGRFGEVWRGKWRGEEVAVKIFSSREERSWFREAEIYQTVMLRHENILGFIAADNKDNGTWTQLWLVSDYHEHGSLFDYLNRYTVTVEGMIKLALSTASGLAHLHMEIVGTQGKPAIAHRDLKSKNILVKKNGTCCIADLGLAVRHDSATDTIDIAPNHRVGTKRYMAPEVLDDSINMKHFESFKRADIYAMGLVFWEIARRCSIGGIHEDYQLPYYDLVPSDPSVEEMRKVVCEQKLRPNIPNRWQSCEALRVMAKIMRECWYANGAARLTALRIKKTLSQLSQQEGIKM
The test is described as follows: Biochemical ALK5 (TGF-βR1) assay to measure pKi (LANCE Ultra ULight kinase assay). As to conditions: apparent pKi, converted from pIC50 by Cheng-Prusoff. Here is the method: The assays were performed in a 384-well plate (24 columns×16 wells/rows). An Echo®550 Liquid Handler (Labcyte) was used to prepare various intermediate concentrations of compounds of the present disclosure in 100% DMSO. From the intermediate concentrations, a range of concentrations (from […] to 25 μM corresponding to volumes up to 105 nL) were prepared and ejected into a final assay plate to be used to create individual dose response curves for each of the subject compounds. To a separate column within the assay plate, 105 nL of DMSO in each well was used to establish a maximum assay signal. Additionally, 105 nL of 100 μM SD-208, a selective TGF-βR1 inhibitor (Catalog #S7624, Selleck Chemicals), was used in another column of wells to establish a minimal assay signal.
With a multidrop dispenser, 8 μL of enzyme mixture (1.25× final) was added to each well. […] The plate was then sealed with an adhesive seal and allowed to equilibrate for 60 minutes at room temperature.
Next, 2 μL of 125 μM ATP (5×final, 125 μM ATP prepared in assay buffer with 2 mM DTT) was added to the incubated mixtures, covered with a MicroClime® Environmental Lid (Product No. LLS-0310, Labcyte) and immediately transferred to 37° C. The reactions were allowed to proceed at 37° C. for 60 minutes before terminating with the addition of 10 μL of detection antibody (LANCE® (lanthanide chelate excite) Ultra Europium-anti-phospo-DNA Topoisomerase 2-alpha (Thr1342)) in detection mixture (12 mM EDTA, 4 nM detection antibody prepared in detection buffer (50 mM Tris-HCl, 150 mM NaCl, 0.5% BSA (Fraction V), pH 7.0)) at room temperature. The plate was then read on a Perkin Elmer EnVision Plate Reader using europium specific reader settings with excitation and emission wavelengths set to 320 or 340 nm and 665 nm, respectively.
For dose-response analyses, percent inhibition versus compound concentrations were plotted, and pIC50 values were determined from a 4-parameter robust fit model with GraphPad Prism V5 Software (GraphPad Software, Inc., La Jolla, CA). This model obtains pIC50 values by fitting the sigmoidal dose-response (variable slope) equation to the data. Results were expressed as pIC50 (negative logarithm of IC50) and subsequently converted to pKi (negative logarithm of dissociate constant, Ki) using the Cheng-Prusoff equation. The higher the value of pKi (lower value of Ki), the greater the inhibition of ALK5 activity.
In general terms: Time-resolved FRET reads energy transfer from a long-lived donor to a nearby acceptor.

The values below come from US20230399312A1, “SUBSTITUTED PYRIMIDINES AND METHODS OF USE” (THERAVANCE BIOPHARMA R&D IP, LLC, priority 2020, published 2023).

With `Cc1cccc(-c2nccc(Nc3ccnc(Nc4ccc(CN5[C@H]6CCNC[C@@H]5CC6)cc4)n3)n2)n1` (racemic) [Compound 360, N4-[2-(6-methyl-2-pyridyl)pyrimidin-4-yl]-N2-[4-[[rac-(1S,6R)-3,9-diazabicyclo[4.2.1]nonan-9-yl]methyl]phenyl]pyrimidine-2,4-diamine], in test [1], the IC50 is 25.1 to 158 nM. Further, in test [2], the Ki was 0.0398 to 0.316 nM.
For the molecule `CC[C@H](C)OC(=O)C1CN(Cc2ccc(Nc3nccc(Nc4ccnc(-c5cccc(C)n5)n4)n3)cc2)CCN1` (mixture of isomers) [Compound 382, [rac-(1S)-1-methylpropyl] 4-[[4-[[4-[[2-(6-methyl-2-pyridyl)pyrimidin-4-yl]amino]pyrimidin-2-yl]amino]phenyl]methyl] piperazine-2-carboxylate], the IC50 in test [1] was 25.1 to 158 nM. For the same molecule, the Ki in test [2] was 0.0398 to 0.316 nM.
With `Cc1cccc(-c2nccc(Nc3ccnc(Nc4ccc(CN5CCCC(C(=O)NC6CCNC6)C5)cc4)n3)n2)n1` (racemic) [Compound 456, 1-[[4-[[4-[[2-(6-methyl-2-pyridyl)pyrimidin-4-yl]amino]pyrimidin-2-yl]amino]phenyl]methyl]-N-[rac-(3R)-pyrrolidin-3-yl]piperidine-3-carboxamide], in test [1], the IC50 was 25.1 to 158 nM. In test [2], the Ki is 0.0398 to 0.316 nM.
`Cc1cccc(-c2nccc(Nc3ccnc(Nc4ccc(N[C@H]5CCNC5)cc4)n3)n2)n1` [Compound 1, N4-[2-(6-methyl-2-pyridyl)pyrimidin-4-yl]-N2-[4-[[(3S)-pyrrolidin-3-yl]amino]phenyl]pyrimidine-2,4-diamine]: the IC50 in test [1] was 25.1 to 158 nM. Also, the Ki in test [2] was 0.0398 to 0.316 nM.
The matching figures for `Cc1cccc(-c2nccc(Nc3ccnc(Nc4cc(F)c(C(=O)N5CCNCC5)c(Cl)c4)n3)n2)n1` [Compound 2, [2-chloro-6-fluoro-4-[[4-[[2-(6-methyl-2-pyridyl)pyrimidin-4-yl]amino]pyrimidin-2-yl]amino]phenyl]-piperazin-1-yl-methanone]: 25.1 to 158 nM and 0.398 to 3.16 nM.
In the case of `CC(=O)N1CC(CNc2ccc(Nc3nccc(Nc4ccnc(-c5cccc(C)n5)n4)n3)cc2)C1` [Compound 3, 1-[3-[[4-[[4-[[2-(6-methyl-2-pyridyl)pyrimidin-4-yl]amino]pyrimidin-2-yl]amino]anilino]methyl]azetidin-1-yl]ethanone], the IC50 in test [1] was 25.1 to 158 nM. In test [2], the Ki is 0.398 to 3.16 nM.
The matching figures for `Cc1cccc(-c2nccc(Nc3ccnc(Nc4ccc(N5CCC(N6CCN(C)CC6)CC5)cc4)n3)n2)n1` [Compound 4, N2-[4-[4-(4-methylpiperazin-1-yl)-1-piperidyl]phenyl]-N4-[2-(6-methyl-2-pyridyl)pyrimidin-4-yl]pyrimidine-2,4-diamine]: 25.1 to 158 nM and 0.0398 to 0.316 nM.
As for `Cc1cccc(-c2nccc(Nc3ccnc(Nc4ccc(N)cc4)n3)n2)n1` [Compound 5, N2-(4-aminophenyl)-N4-[2-(6-methyl-2-pyridyl)pyrimidin-4-yl]pyrimidine-2,4-diamine], in test [1], the IC50 was at most 20 nM. In test [2], the Ki is 0.398 to 3.16 nM.
Regarding `COc1ccc(Nc2nccc(Nc3ccnc(-c4cccc(C)n4)n3)n2)cc1NC(=O)C1CCNCC1` [Compound 6, N-[2-methoxy-5-[[4-[[2-(6-methyl-2-pyridyl)pyrimidin-4-yl]amino]pyrimidin-2-yl]amino]phenyl]piperidine-4-carboxamide], in test [1], the IC50 is 25.1 to 158 nM. Also, the Ki in test [2] was 0.0398 to 0.316 nM.
Consider `Cc1cccc(-c2nccc(Nc3ccnc(Nc4ccc(N5CCSCC5)cc4)n3)n2)n1` [Compound 8, N4-[2-(6-methyl-2-pyridyl)pyrimidin-4-yl]-N2-(4-thiomorpholinophenyl) pyrimidine-2,4-diamine], for which the IC50 in test [1] was 25.1 to 158 nM. Also, the Ki in test [2] was 0.0398 to 0.316 nM.
For `CC[C@@H](C)OC(=O)CC1CNCCN1c1ccc(Nc2nccc(Nc3ccnc(-c4cccc(C)n4)n3)n2)cc1` (stereo partly drawn) [Compound 9, [(1R)-1-methylpropyl] 2-[1-[4-[[4-[[2-(6-methyl-2-pyridyl)pyrimidin-4-yl]amino]pyrimidin-2-yl]amino]phenyl]piperazin-2-yl]acetate], the IC50 in test [1] was 25.1 to 158 nM. For the same molecule, the Ki in test [2] was 0.0398 to 0.316 nM.
As to `Cc1cccc(-c2nccc(Nc3ccnc(Nc4ccc(NC(=O)C5CCCNC5)cc4)n3)n2)n1` (stereo not shown) [Compound 10, N-[4-[[4-[[2-(6-methyl-2-pyridyl)pyrimidin-4-yl]amino]pyrimidin-2-yl]amino]phenyl]piperidine-3-carboxamide], in test [1], the IC50 is at most 20 nM. For the same molecule, the Ki in test [2] is 0.0398 to 0.316 nM.
On to `Cc1cccc(-c2nccc(Nc3ccnc(Nc4ccc(N5CCCC(C(=O)OC6CCNC6)C5)cc4)n3)n2)n1` (stereo not shown) [Compound 11, pyrrolidin-3-yl 1-[4-[[4-[[2-(6-methyl-2-pyridyl)pyrimidin-4-yl]amino]pyrimidin-2-yl]amino]phenyl]piperidine-3-carboxylate], for which the IC50 in test [1] is 200 to 1260 nM. The Ki in test [2] was 0.0398 to 0.316 nM.
On to `CC(=O)N1CCN(S(=O)(=O)c2ccc(Nc3nccc(Nc4ccnc(-c5cccc(C)n5)n4)n3)cc2)CC1` [Compound 12, 1-[4-[4-[[4-[[2-(6-methyl-2-pyridyl)pyrimidin-4-yl]amino]pyrimidin-2-yl]amino]phenyl]sulfonylpiperazin-1-yl]ethanone], for which, in test [1], the IC50 is 25.1 to 158 nM. Moreover, the Ki in test [2] was 0.0398 to 0.316 nM.
Take `CC[C@@H](C)OC(=O)Cc1cc(Nc2nccc(Nc3ccnc(-c4cccc(C)n4)n3)n2)ccc1N1CCNCC1` [Compound 13, (R)-sec-butyl 2-(5-((4-((2-(6-methylpyridin-2-yl)pyrimidin-4-yl)amino)pyrimidin-2-yl)amino)-2-(piperazin-1-yl)phenyl)acetate]: the IC50 in test [1] was 25.1 to 158 nM. In addition, the Ki in test [2] is 0.0398 to 0.316 nM.
As for `Cc1cccc(-c2nccc(Nc3ccnc(Nc4ccc(NC(=O)C5CCNCC5)cc4)n3)n2)n1` [Compound 14, N-(4-((4-((2-(6-methylpyridin-2-yl)pyrimidin-4-yl)amino)pyrimidin-2-yl)amino)phenyl)piperidine-4-carboxamide], the IC50 in test [1] is at most 20 nM. Also, in test [2], the Ki was 0.0398 to 0.316 nM.
As to `Cc1cccc(-c2nccc(Nc3ccnc(Nc4ccc(N5CC6(CNC6)C5)cc4)n3)n2)n1` [Compound 15, N2-[4-(2,6-diazaspiro[3.3]heptan-2-yl)phenyl]-N4-[2-(6-methyl-2-pyridyl)pyrimidin-4-yl]pyrimidine-2,4-diamine], the IC50 in test [1] was 25.1 to 158 nM. Moreover, the Ki in test [2] is 0.0398 to 0.316 nM.
